Results on 6 compounds are retold here after patent US20050130197A1, “Homogeneous fluorescence polarization assay for high throughput screening” (priority 2003, published 2005).

The target in experiment [1] is T1, human NPFF2 receptor membranes (Homo sapiens, UniProt Q9Y5X5).
T1 construct: purchased Euroscreen s.a; (Brussels, Belgium)
The experiment is described as follows: In vitro functional FP assay with GDP and GTPγS (GTP binding assay). It is filed as biochemical. To be noted: one agonist fixed at 2-3×IC50, other ligand varied; 3 μM GDP and 5 μM GTPγS.
Method: The binding assay was performed in a final volume of 40 μl as follows: 10 μl of different concentrations of displacing ligand, 10 μl of tracer, and 10 μl of diluted receptor membrane preparation (3.6-4.2 ug protein/well), which were added sequentially. After 15 min, 10 μl of the binding buffer with 3-10 μM GDP and 5-50 μM GTPγS was added. The reaction was incubated at room temperature for 15-120 min.
The concentrations of the other agonist increased from 0.0019 nM to 9.0 μM per well.
Next a combination of an agonist with a fixed concentration and an antagonist with varying concentrations was tested under the same conditions.

The target of experiment [2] is T2, human NPFF2 receptor (Homo sapiens, UniProt Q9Y5X5).
T2 construct: purchased Euroscreen s.a; (Brussels, Belgium)
To be noted: data from Eur. J. Pharmacol. 451: 245-256 (2002); read-out: [125I]Ligand Filtration Human Ki (c); cited from earlier work.

Experiment [3] has as its target T2, human NPFF2 receptor. The experiment is described as follows: Fluorescence polarization (FP) competition binding assay, TAMRA-NPFF tracer, 0.1% Pluronic F-127. To be noted: for Ki: FP competition binding, TAMRA-NPFF tracer, human NPFF2 receptor membrane preparation, means ± S.E. of three separate experiments; for Ki for inhibiting TAMRA-NPFF binding (in words): FP displacement curves; for affinity to the TAMRA-NPFF binding site / binding to NPFF2 receptor: 10 μM, FP assay. How it is done:
Human NPFF2 receptor membrane homogenates were diluted in a binding buffer (50 mM HEPES buffer, pH 7.4 and various concentrations of detergents) to the membrane concentration required. In general, the binding assay was performed in a final volume of 40 μl: 20 μl of displacing ligand, 10 μl of fluorescent tracer, and 10 μl of diluted receptor membrane preparation (3.6-4.2 ug protein/well depending on the assay), which were added sequentially. The reaction was incubated at room temperature for 0.5-24 h before FP was measured depending on each experiment.
FP binding data were analyzed and fitted using GraphPad Prism® software (GraphPad Software, Inc., San Diego, Calif.). Competitive binding data was fit to a one-site competitive binding equation using nonlinear regression curve fitting. IC50 values were determined by nonlinear regression analysis of the inhibition curves. Data points in the displacement curves and in the graphs of DMSO, nonionic detergents, Chicago Sky Blue 6B and tartrazine consist of an average of 4-6 repetitions. All error bars represent ±1 standard deviation unit of the spread of the data except for displacement curves, where the error bars represent ±SEM. mP is defined by the following equation: mP=1000×(I∥−I⊥)/(I∥+I⊥) where mP=milli-polarization, I∥=parallel component of the emitted light, and I⊥=perpendicular component of the emitted light. Assay precision was assessed by calculating the Z′ value: Z′=1−[(3*σbound)+(3*σdisplaced)/|(mPbound−mPdisplaced)|] where σ is the standard deviation in the signal, mP: the subscript “bound” corresponds to the signal obtained in the absence of a displacing substance; and the subscript “displaced” corresponds to the signal of a completely displaced ligand (Zhang, J-H. et al., J. Biomol. Screen., (1999) 4, 67-73; Banks, P. et al., J. Biomol. Screen., (2002) 7, 111-117). The denominator of the equation calculates the specific binding expressed in the absolute value of mP difference, and the numerator calculates the precision in both bound and displaced signals. Background correction was done after each analysis by subtracting blank parallel and perpendicular intensities from the respective intensities. According to Z′ value model, the Z′ values of above 0.5 indicate excellent assays.
A general note: Polarisation of emitted light reports the rotation of a fluorescent probe.

Experiment [4] concerns the target T2, human NPFF2 receptor. To be noted: data from J. Biol. Chem. 275: 39324-39331 (2000); read-out: [125I]Ligand Filtration Human Ki (b); cited from earlier work.

Read-outs that look alike come from different tables or passages of the source. Where a SMILES comes first, the peptide text is derived from it. Where no end group is shown, it is not given here. [ ]: non-standard residue; d: D form. NMeF = CN[C@@H](Cc1ccccc1)C(=O)O

T2 sequence (Q9Y5X5 whole entry): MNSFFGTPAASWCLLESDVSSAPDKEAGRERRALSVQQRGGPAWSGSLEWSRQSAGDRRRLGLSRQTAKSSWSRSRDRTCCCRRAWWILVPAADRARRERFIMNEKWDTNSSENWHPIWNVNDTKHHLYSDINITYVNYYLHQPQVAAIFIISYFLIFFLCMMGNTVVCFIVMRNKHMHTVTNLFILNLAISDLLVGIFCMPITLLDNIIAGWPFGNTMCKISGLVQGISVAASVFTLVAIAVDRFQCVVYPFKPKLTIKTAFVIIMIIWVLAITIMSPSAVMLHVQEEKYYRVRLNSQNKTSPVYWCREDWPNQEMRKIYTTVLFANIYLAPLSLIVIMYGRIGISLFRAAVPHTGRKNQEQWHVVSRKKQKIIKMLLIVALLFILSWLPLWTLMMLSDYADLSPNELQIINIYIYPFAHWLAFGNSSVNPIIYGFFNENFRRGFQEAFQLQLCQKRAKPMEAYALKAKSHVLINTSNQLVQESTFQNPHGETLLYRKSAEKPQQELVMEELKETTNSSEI
T1 sequence (Q9Y5X5 whole entry): as above

For `NC(N)=NCCC[C@@H](NC(=O)C(c1ccccc1)c1ccccc1)C(=O)NCc1ccc(O)cc1` [BIBP3226], in experiment [1], the “affinity state in in vitro functional assays” value is given as “monophasic affinity state”. The Ki is 84 ± 12 nM on human NPFF2 receptor [2], 96 ± 13 nM on human NPFF2 receptor [3] and 1260 ± 111 nM on human NPFF2 receptor [4].

As to `CC(C)C[C@H](NC(=O)[C@H](N)Cc1ccc(O)cc1)C(=O)N(C)[C@@H](Cc1ccccc1)C(=O)N[C@@H](CCC(N)=O)C(=O)N1CCC[C@H]1C(=O)N[C@@H](CCC(N)=O)C(=O)N[C@@H](CCCN=C(N)N)C(=O)N[C@@H](Cc1ccccc1)C(N)=O` [[D-Tyr^1(NMe)Phe^3]NPFF, [D-Tyr^1, (N-Me)Phe^3]NPFF] (H-[dY]L[NMeF]QPQRF-NH2), the Ki at human NPFF2 receptor [2] is 0.18 ± 0.04 nM; on human NPFF2 receptor [3] it was 0.46 ± 0.05 nM.

On to `CC(C)C[C@H](NC(=O)[C@H](N)Cc1ccc(O)cc1)C(=O)N(C)[C@@H](Cc1ccccc1)C(=O)N[C@@H](CCC(N)=O)C(=O)N1CCC[C@H]1C(=O)N[C@@H](CCC(N)=O)C(=O)N[C@@H](CCCNC(=N)N)C(=O)N[C@@H](Cc1ccccc1)C(N)=O` [[D-Tyr^1(NMe)Phe^3]NPFF, [D-Tyr^1, (N-Me)Phe^3]NPFF] (H-[dY]L[NMeF]QPQRF-NH2), for which, at human NPFF2 receptor [3], the “Ki for inhibiting TAMRA-NPFF binding (in words)” value was “nanomolar range”.

In the case of `COc1cc(CNC(=O)CCCC/C=C/C(C)C)ccc1O` [capsaicin], at human NPFF2 receptor [3], the “affinity to the TAMRA-NPFF binding site / binding to NPFF2 receptor” value was “little or no affinity”.

Take `CC(COc1ccccc1)N(CCCl)Cc1ccccc1` (stereo not drawn) [phenoxybenzamine]: on human NPFF2 receptor [3], the “affinity to the TAMRA-NPFF binding site / binding to NPFF2 receptor” value was “little or no affinity”.

For the compound “APSEPHHPGDQATQDQLAQYYSDLYQYITFVTRPRF-NH2 [Frog PP]”, the “assay window (FIG. 8)” value on human NPFF2 receptor [3] (0.1% trifluoroacetic acid added to assay buffer) is on record as 100 mP. Besides, the “Ki for inhibiting TAMRA-NPFF binding (in words)” value at human NPFF2 receptor [3] is recorded as “nanomolar range”. Also, on human NPFF2 receptor [4], the Ki is 40 ± 11 nM.
